Source: US9040542B2, “Solid forms of gyrase inhibitor (R)-1-ethyl-3-[6-fluoro-5-[2-(1-hydroxy-1-methyl-ethyl)pryimidin-5-yl]-7-(tetrahydrofuran-2-yl)-1H-benzimidazol-2-yl]urea” (priority 2011, dated 2015)

Legend:
S. aureus DNA gyrase = S. aureus DNA gyrase (Staphylococcus aureus, UniProt P0A0K8); assay: DNA Gyrase ATPase Assay; format: biochemical; conditions: 30° C., read-out: Ki, Inhibition of S. aureus DNA Gyrase
Experimental: The ATP hydrolysis activity of S. aureus DNA gyrase is measured by coupling the production of ADP through pyruvate kinase/lactate dehydrogenase to the oxidation of NADH. This method has been described previously (Tamura and Gellert, 1990, J. Biol. Chem., 265, 21342).
ATPase assays are carried out at 30° C. in buffered solutions containing 100 mM TRIS pH 7.6, 1.5 mM MgCl2, 150 mM KCl. The coupling system contains final concentrations of 2.5 mM phosphoenol pyruvate, 200 μM nicotinamide adenine dinucleotide (NADH), 1 mM DTT, 30 ug/ml pyruvate kinase, and 10 ug/ml lactate dehydrogenase. The enzyme (90 nM final concentration) and a DMSO solution (3% final concentration) of a compound is added. The reaction mixture is allowed to incubate for 10 minutes at 30° C. The reaction is initiated by the addition of ATP to a final concentration of 0.9 mM, and the rate of NADH disappearance is monitored at 340 nanometers over the course of 10 minutes. The Ki and IC50 values are determined from rate versus concentration profiles.

S. aureus TopoIV enzyme = S. aureus TopoIV enzyme (Staphylococcus aureus, UniProt P0C1S7); assay: DNA Topo IV ATPase Assay; format: biochemical; conditions: 30° C., read-out: Ki, Inhibition of S. aureus DNA Topo IV
Experimental: The conversion of ATP to ADP by S. aureus TopoIV enzyme is coupled to the conversion of NADH to NAD+, and the progress of the reaction is measured by the change in absorbance at 340 nm. TopoIV (64 nM) is incubated with the selected compound (3% DMSO final) in buffer for 10 minutes at 30° C. The buffer consists of 100 mM Tris 7.5, 1.5 mM MgCl2, 200 mM K•Glutamate, 2.5 mM phosphoenol pyruvate, 0.2 mM NADH, 1 mM DTT, 5 μg/mL linearized DNA, 50 μg/mL BSA, 30 μg/mL pyruvate kinase, and 10 μg/mL lactate dehyrodgenase (LDH). The reaction is initiated with ATP, and rates are monitored continuously for 20 minutes at 30° C. on a Molecular Devices SpectraMAX plate reader. The inhibition constant, Ki, and the IC50 are determined from plots of rate vs. concentration of selected compound fit to the Morrison Equation for tight binding inhibitors.

[1] = Stability data of solid forms on storage; format: physicochemical

In the case of CCNC(=O)Nc1nc2cc(-c3cnc(C(C)(C)O)nc3)c(F)c([C@H]3CCCO3)c2[nH]1 [Compound 23, 1-ethyl-3-[6-fluoro-5-[2-(1-hydroxy-1-methyl-ethyl)pyrimidin-5-yl]-7-[(2R)-tetrahydrofuran-2-yl]-1H-benzimidazol-2-yl]urea], the Ki (S. aureus DNA gyrase) is reported as 0.009 µM, the Ki (S. aureus TopoIV enzyme) is reported as 0.012 µM and the “stability of solid form” value ([1]; 40° C. with relative humidity of up to 75%) is reported as “stable for at least one month”. For the same compound, the “chemical and physical stability” value ([1]; all storage conditions (25° C./60% RH, 40° C./ambient, and 40° C./75% RH), 1 month timepoint) was “chemically and physically stable”.
